Test [1] has as its target T1, DiHydroFolate Reductase (DHFR) (Rattus norvegicus, UniProt Q920D2).
T1 construct: from tissue; host or cells: rat liver homogenate supernatant
T1 sequence (Q920D2 1-187): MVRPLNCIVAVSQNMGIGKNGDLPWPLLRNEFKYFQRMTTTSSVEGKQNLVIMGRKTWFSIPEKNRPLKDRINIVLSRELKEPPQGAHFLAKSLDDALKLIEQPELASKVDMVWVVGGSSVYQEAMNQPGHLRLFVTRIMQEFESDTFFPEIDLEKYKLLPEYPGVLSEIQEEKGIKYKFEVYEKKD
The test can be described thus: Inhibition of binding of [3H]methotrexate to rat liver homogenate supernatant. The following applies: 125 μM; for inhibition at 125 µM: read-out: [3H]mtx binding (% inhibition @ 125 μM). As for the experimental part:
All steps were carried out at 4° (or on ice). Freshly dissected rat liver was dissected into 0.25M ice-cold Sucrose and subsequently homogenised (U-turrax) in 50 mM pH 6.0 phosphate buffer (10 ml/g tissue) containing 15 mM Dithiothreitol. The resulting homogenate was centrifuged@47,500×g for 20 min and supernatant (filtered through cotton wool to remove fatty lumps) stored @ −80° before use (Rothenberg et al).
Inhibition of the binding of [^3H]methotrexate to rat liver homogenate supernatant fractions were carried out essentially as described by Arons et al, 1975.
(§1) Data are presented as mean±sem of number of experiments indicated in brackets.

The test system of test [2] is sodium channel. The test can be described thus: [14C]guanidine flux: veratrine-evoked uptake of [14C]guanidine into rat forebrain synaptosomes (primary sodium channel assay). Type of test: biochemical. The following applies: 30° for 2½ min. The procedure: The screening strategy is designed to select compounds with appropriate sodium channel blocking activity and low side effect liability. To this end all compounds are processed through the primary sodium channel assay (veratrine-evoked uptake of [^14C]guanidine into rat forebrain synaptosomes) and IC50 values computed from generated concentration-effect curves.
Experiments were performed using forebrain (whole brain less cerebellum/medulla) from Male Wistar rats weighing 175-250 g. All efforts were made to reduce the number of animals used and all experiments were carried out in accordance with the UK Animals (Scientific Procedures) Act, 1986 and the European Community Council Directive of 24 Nov. 1986 (86/609/EEC). Following killing of animals by stunning and decapitation, the forebrain (whole brain less cerebellum/medulla) was rapidly dissected and transferred to a weighed tube containing ice-cold 0.25M sucrose.
Synaptosomes (heavy and light mitochondrial fraction containing synaptosomes) were prepared by transferring the forebrain (of known wet weight) to a glass Potter vessel to which 9 volumes ice-cold 0.25M sucrose had been added and homogenising, using a teflon pestle, by 8 ‘up and down strokes’ of a Braun Potter S motor driven homogeniser set to 900 rpm. The resulting homogenate was centrifuged at 1036×g at 4° for 10 min and the supernatant collected. The remaining pellet was resuspended, as above, in fresh ice-cold 0.25M sucrose and the centrifugation step repeated. The supernatant fractions were pooled and centrifuged at 40,000×g (average) at 4° for 15 min and the resulting pellet resuspended in the appropriate assay buffer at a concentration of 20-25 mg wet weight per ml appropriate assay buffer.
Both assays were carried out using 14 ml polypropylene test tubes to which a range of concentrations of the compounds under test were added.
The [^14C] guanidinine flux assay was measured using the method of Pauwels P J et al (1986) but carried out@30° for 2½ min.
as §1

pIC50: −log10 of the molar value. Structures can show the parent of a compound that is named as a salt. Some results are limits rather than exact numbers.

In the case of `Cn1cc(-c2cccc(Cl)c2Cl)c(N)nc1=N` [CEN-42, 4(2)-Amino-5-(2,3-dichlorophenyl)-2,4(2,5)-dihydro-2(4)-imino-1-methyl pyrimidine], the “[3H]mtx binding (% inhibition @ 125 μM)” value in test [1] (listed as 42, 125 µM) is listed as 32%. Further, in test [2] (listed as 42), the negative logarithm of the IC50 (pIC50) is 3.21.
For `Cn1cc(-c2cccc(Cl)c2Cl)c(N)nc1=N` [CEN-43, 4(2)-Amino-5-(2,3-dichlorophenyl)-2,4(2,5)-dihydro-2(4)-imino-1-methylpyrimidine], the “[3H]mtx binding (% inhibition @ 125 μM)” value in test [1] (listed as 43, 125 µM) came to 20%. Further, the pIC50 in test [2] (listed as 43) was 3.20.
In the case of `Cn1nc(-c2cccs2)c(N)nc1=N` [CEN-61, 5(3)-Amino-6-(2-thienyl)-2,3(2,5)-dihydro-3(5)-imino-2-methyl-1,2,4-triazine methanesulfonate], in test [1], the inhibition at 125 µM is 87%. This compound gave a negative-log IC50 (pIC50) in test [2] of 3.17.
Take `Nc1nnc(-c2cccc3c2OC(F)(F)O3)c(N)n1` [CEN-70, 3,5-Diamino-6-[4-(2,2-difluorobenzodioxolo)]-1,2,4-triazine]: in test [1], the inhibition at 125 µM came out at 66%. This compound also showed a pIC50 in test [2] of 2.82.
The like results for `Nc1cnc(-c2cccc3c2OC(F)(F)O3)c(N)n1` [CEN-89, 2,6-Diamino-3-(2,2-difluorobenzodioxol-4-yl)pyrazine] were, in that order, 101% and 3.14.
In the same order, the values of `C[n+]1cc(N)nc(N)c1-c1cc(Cl)cc(Cl)c1Cl` [CEN-90] are 53% and 4.01.
As to `CC(C)OCCn1nc(-c2cccc(Cl)c2Cl)c(N)nc1=N` [CEN-91, 5(3)-Amino-6-(2,3-dichlorophenyl)-2,3(2,5)-dihydro-3(5)-imino-2-(2-isopropoxy)ethyl-1,2,4-triazine], the inhibition at 125 µM in test [1] stood at 94%. The compound further showed a negative logarithm of the IC50 (pIC50) in test [2] of 3.43.
The like results for `COc1cc(-c2nn(C)c(=N)nc2N)cc(OC)c1OC` [CEN-101, 5(3)-Amino-6-(3,4,5-trimethoxyphenyl)-2,3(2,5)-dihydro-3(5)-imino-2-methyl-1,2,4-triazine methanesulfonate] were, in that order, 65% and less than 3.00.
The like results for `Cn1nc(-c2ccc(Oc3ccccc3)cc2)c(N)nc1=N` [CEN-102, 5(3)-Amino-6-(4-phenoxyphenyl)-2,3(2,5)-dihydro-3(5)-imino-2-methyl-1,2,4-triazine methanesulfonate] were, in that order, 25% and 4.23.
The like results for `Nc1nnc(-c2ccc(Oc3ccc(-c4nnc(N)nc4N)cc3)cc2)c(N)n1` [CEN-111, Bis-[3,5-Diamino-6-(4-ARYL)-1,2,4-triazine]] were, in that order, 97% and 3.04.
For `C/C(=C\c1ccccc1)c1nnc(N)nc1N` [CEN-112, 3,5-Diamino-6-[E-2-(3-phenyl)propenyl]-1,2,4-triazine], the inhibition at 125 µM in test [1] was 84%. The negative-log IC50 (pIC50) in test [2] was 3.00.
Take `Cn1nc(-c2ccc(Oc3ccc(-c4nn(C)c(=N)nc4N)cc3)cc2)c(N)nc1=N` [CEN-116]: the inhibition at 125 µM in test [1] was 70%. The same compound gave a pIC50 in test [2] of 3.02.
In the same order, the values of `Nc1nnc(-c2ccc3c(c2)OC(F)(F)O3)c(N)n1` [CEN-117, 3,5-Diamino-6-[5-(2,2-difluorobenzodioxolo)]-1,2,4-triazine] are 79% and less than 3.00.
The like results for `CCn1nc(-c2cc(OC)c(OC)c(OC)c2)c(N)nc1=N` [CEN-119, 5(3)-Amino-6-(3,4,5-trimethoxyphenyl)-2,3(2,5)-dihydro-3(5)-imino-2-ethyl-1,2,4-triazine methanesulfonate] were, in that order, 52% and 2.71.
The like results for `Nc1nnc(-c2cc3ccccc3oc2=O)c(N)n1` [CEN-133] were, in that order, 17% and less than 2.70.
On to `Cc1ccc(-c2nc(=N)n(C)nc2-c2ccc(C)cc2)cc1` [CEN-134, 3-Amino-2-methyl-5,6-bis(4-methylphenyl)-1,2,4-triazine mesylate], for which the inhibition at 125 µM in test [1] came to 6%. Besides, the negative-log IC50 (pIC50) in test [2] was 5.31.
For the compound `Cn1nc(-c2cc(Br)c(Br)o2)c(N)nc1=N` [CEN-135, 5(3)-Amino-6-[2-(4,5-dibromofuryl)]-2,3(2,5)-dihydro-3(5)-imino-2-methyl-1,2,4-triazine methanesulfonate], the inhibition at 125 µM in test [1] was 89%. The pIC50 in test [2] was 4.36.
In the same order, the values of `Cn1nc2c3ccccc3c3ccccc3c2nc1=N` [CEN-136] are 27% and 3.64.
The like results for `Cn1nc(-c2ccccc2OC(F)F)c(N)nc1=N` [CEN-146, 5(3)-Amino-6-(2-difluoromethoxyphenyl)-2,3(2,5)-dihydro-3(5)-imino-2-methyl-1,2,4-triazine methanesulfonate] were, in that order, 3% and 3.06.
As to `Cn1nc(C(C)(c2ccccc2)c2ccccc2)c(N)nc1=N` [CEN-149, 5(3)-Amino-6-(1,1-diphenylethyl)-2,3(2,5)-dihydro-3(5)-imino-2-methyl-1,2,4-triazine methanesulfonate], the inhibition at 125 µM in test [1] stood at 4%. Moreover, the pIC50 in test [2] was 4.63.
With `Cn1nc(C2(c3ccc(Cl)cc3)CCCC2)c(N)nc1=N` [CEN-150, 5(3)-Amino-6-{1-[1-(4-chlorophenyl)]cyclopentyl}-2,3(2,5)-dihydro-3(5)-imino-2-methyl-1,2,4-triazine methanesulfonate], the inhibition at 125 µM in test [1] worked out at 27%. This compound had a negative logarithm of the IC50 (pIC50) in test [2] of 4.79.
For the compound `COc1ccc2c(OC)cccc2c1-c1nnc(N)nc1N` [CEN-156], in test [1] (listed as 156, 125 µM), the “[3H]mtx binding (% inhibition @ 125 μM)” value is 32%. The pIC50 in test [2] (listed as 156) is 3.61.
For `COc1ccc2c(OC)cccc2c1-c1nnc(N)nc1N` [CEN-158], the “[3H]mtx binding (% inhibition @ 125 μM)” value in test [1] (listed as 158, 125 µM) is recorded as −1%. The compound also had a negative logarithm of the IC50 (pIC50) in test [2] (listed as 158) of less than 3.00.
In the case of `CCn1nc(-c2cccc(-c3ccccc3)c2)c(N)nc1=N` [CEN-162, 5(3)-Amino-6-(3-biphenyl)-2,3(2,5)-dihydro-3(5)-imino-2-ethyl-1,2,4-triazine methanesulfonate], the inhibition at 125 µM in test [1] was found to be 57%. In addition, the pIC50 in test [2] is 4.92.
In the same order, the values of `Nc1nnc(-c2cccnc2Cl)c(N)n1` [CEN-164, 3,5-Diamino-6-[3-(2-chloropyidyl)]-1,2,4-triazine] are 0% and 3.16.
In the same order, the values of `Nc1nnc(-c2cccc(Cl)n2)c(N)n1` [CEN-166, 3,5-Diamino-6-[2-(6-chloropyidyl)]-1,2,4-triazine] are 88% and 2.93.
The like results for `Nc1nnc(-c2cccnc2Oc2ccccc2)c(N)n1` [CEN-167, 3,5-Diamino-6-[3-(2-phenoxypyidyl)]-1,2,4-triazine] were, in that order, -2% and less than 2.70.
As for `Nc1nnc(-c2cnc(Cl)c(Cl)c2)c(N)n1` [CEN-168, 3,5-Diamino-6-[3-(5,6-dichloropyidyl)]-1,2,4-triazine], the inhibition at 125 µM in test [1] came to 95%. Also, in test [2], the pIC50 is 3.00.
Consider `CCCC(CCC)c1nnc(N)nc1N` [CEN-170, 3,5-Diamino-6-(1-propylbutyl)-1,2,4-triazine tosylate], for which the inhibition at 125 µM in test [1] worked out at 29%. Moreover, the pIC50 in test [2] is 3.58.
In the case of `Nc1nnc(-c2cccc(OCc3ccc(C(F)(F)F)cc3C(F)(F)F)c2)c(N)n1` [CEN-171, 3,5-Diamino-6-[3-(2,4-trifluoromethylbenzyloxy)phenyl]-1,2,4-triazine], the “[3H]mtx binding (% inhibition @ 125 μM)” value in test [1] amounted to 91%. In addition, the negative logarithm of the IC50 (pIC50) in test [2] is 5.70.

The pIC50 is the negative decadic logarithm of the IC50, by convention in mol/L. Read a low pIC50 as a large IC50. In general, inhibition refers to the relative decrease from the control value, in per cent.

The values are drawn from patent US8691818B2, “Cyclic triazo and diazo sodium channel blockers” (University Of Greenwich, priority 2008, dated 2014).
